Values after ≈ are worked out from the molar mass of the structure shown.
Legend:
[1] = system: Pasteurella multocida; experiment: minimum inhibitory concentration (MIC)
Description: (§1)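 Broth microdilution MIC (Sensititre BOPO7F bovine plate, CLSI methods) of 19 antimicrobials against field isolates of P. multocida, M. haemolytica, H. somni (deep nasopharyngeal swabs) and E. coli, Enterococcus spp. (rectal swabs) from weaned dairy heifers. Incubation 16-24 h at 35 C. MIC is the lowest concentration preventing visible growth. Values with <= or > lie at the tested range limits. Trimethoprim-sulfamethoxazole is given as the trimethoprim component of a 1:19 mixture.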

[2] = system: Enterococcus spp.; experiment: minimum inhibitory concentration (MIC)
Description: as §1

CCCN1C[C@H](C)[C@@H](O)[C@](C)(O)[C@@H](CC)OC(=O)[C@H](C)[C@@H](O[C@H]2C[C@@](C)(OC)[C@@H](O)[C@H](C)O2)[C@H](C)[C@@H](O[C@@H]2O[C@H](C)C[C@H](N(C)C)[C@H]2O)[C@](C)(O)C[C@H]1C [Gamithromycin]
minimum inhibitory concentration [µg/mL]
Conditions	[1]	[2]
isolate (source animal id): 2	–	≤ 1
isolate (source animal id): 10	8 (≈ 10.3 µM)	–
isolate (source animal id): 11	8 (≈ 10.3 µM)	–
isolate (source animal id): 12	8 (≈ 10.3 µM)	–
isolate (source animal id): 19	8 (≈ 10.3 µM)	–
isolate (source animal id): 23	4 (≈ 5.15 µM)	–
isolate (source animal id): 26	4 (≈ 5.15 µM)	–
isolate (source animal id): 35	–	> 8
isolate (source animal id): 42	–	≤ 1
isolate (source animal id): 44	–	2 (≈ 2.57 µM)
isolate (source animal id): 79	–	2 (≈ 2.57 µM)
isolate (source animal id): 88	–	≤ 1
isolate (source animal id): 91	–	≤ 1
isolate (source animal id): 92	–	2 (≈ 2.57 µM)
isolate (source animal id): 98	8 (≈ 10.3 µM)	–
isolate (source animal id): 104	> 8	–
isolate (source animal id): 111	–	≤ 1
isolate (source animal id): 115	> 8	–
isolate (source animal id): 117	8 (≈ 10.3 µM)	–
isolate (source animal id): 118	8 (≈ 10.3 µM)	–
isolate (source animal id): 121	> 8	–
isolate (source animal id): 122	–	> 8
isolate (source animal id): 123	–	≤ 1
isolate (source animal id): 124	8 (≈ 10.3 µM)	–
isolate (source animal id): 125	8 (≈ 10.3 µM)	–
isolate (source animal id): 128	> 8	–
isolate (source animal id): 131	> 8	–
isolate (source animal id): 133	–	≤ 1
isolate (source animal id): 135	> 8	–
isolate (source animal id): 136	> 8	–
isolate (source animal id): 140	> 8	–
isolate (source animal id): 144	8 (≈ 10.3 µM)	–
isolate (source animal id): 146	8 (≈ 10.3 µM)	–
isolate (source animal id): 150	> 8	–
isolate (source animal id): 151	> 8	–
isolate (source animal id): 153	> 8	–
isolate (source animal id): 155	8 (≈ 10.3 µM)	–
isolate (source animal id): 157	4 (≈ 5.15 µM)	–
isolate (source animal id): 158	–	> 8
isolate (source animal id): 160	> 8	–
isolate (source animal id): 164	> 8	–
isolate (source animal id): 165	> 8	–
isolate (source animal id): 167	≤ 1	–
isolate (source animal id): 168	8 (≈ 10.3 µM)	≤ 1
isolate (source animal id): 169	≤ 1	≤ 1
isolate (source animal id): 170	2 (≈ 2.57 µM)	–
isolate (source animal id): 171	≤ 1	≤ 1
isolate (source animal id): 172	≤ 1	–
isolate (source animal id): 173	> 8	–
isolate (source animal id): 174	≤ 1	–
isolate (source animal id): 175	≤ 1	> 8
isolate (source animal id): 176	≤ 1	–
isolate (source animal id): 177	≤ 1	≤ 1
isolate (source animal id): 178	≤ 1	–
isolate (source animal id): 179	≤ 1	–
isolate (source animal id): 181	–	≤ 1
isolate (source animal id): 182	4 (≈ 5.15 µM)	≤ 1
isolate (source animal id): 183	–	2 (≈ 2.57 µM)
isolate (source animal id): 187	–	≤ 1
isolate (source animal id): 190	–	≤ 1
isolate (source animal id): 192	≤ 1	–
isolate (source animal id): 193	≤ 1	–
isolate (source animal id): 194	–	≤ 1
isolate (source animal id): 195	2 (≈ 2.57 µM)	≤ 1
isolate (source animal id): 196	≤ 1	–
isolate (source animal id): 197	2 (≈ 2.57 µM)	≤ 1
isolate (source animal id): 198	> 8	–
isolate (source animal id): 199	≤ 1	–
isolate (source animal id): 200	≤ 1	–
isolate (source animal id): 201	≤ 1	–
isolate (source animal id): 203	≤ 1	–
isolate (source animal id): 204	≤ 1	–
isolate (source animal id): 205	> 8	–
isolate (source animal id): 206	≤ 1	–
isolate (source animal id): 207	≤ 1	–
isolate (source animal id): 208	≤ 1	–
isolate (source animal id): 209	≤ 1	–
isolate (source animal id): 210	> 8	–
isolate (source animal id): 211	–	≤ 1
isolate (source animal id): 213	≤ 1	–
isolate (source animal id): 214	–	4 (≈ 5.15 µM)
isolate (source animal id): 216	≤ 1	–
isolate (source animal id): 222	–	≤ 1
isolate (source animal id): 223	8 (≈ 10.3 µM)	≤ 1
isolate (source animal id): 227	≤ 1	–
isolate (source animal id): 228	–	8 (≈ 10.3 µM)
isolate (source animal id): 229	8 (≈ 10.3 µM)	–
isolate (source animal id): 230	–	8 (≈ 10.3 µM)
isolate (source animal id): 233	8 (≈ 10.3 µM)	–
isolate (source animal id): 234	8 (≈ 10.3 µM)	–
isolate (source animal id): 235	–	> 8
isolate (source animal id): 236	–	≤ 1
isolate (source animal id): 237	8 (≈ 10.3 µM)	–
isolate (source animal id): 239	–	4 (≈ 5.15 µM)
isolate (source animal id): 241	8 (≈ 10.3 µM)	> 8
isolate (source animal id): 244	–	≤ 1
isolate (source animal id): 245	8 (≈ 10.3 µM)	–
isolate (source animal id): 246	–	≤ 1
isolate (source animal id): 247	8 (≈ 10.3 µM)	> 8
isolate (source animal id): 250	8 (≈ 10.3 µM)	≤ 1
isolate (source animal id): 252	–	> 8
isolate (source animal id): 254	8 (≈ 10.3 µM)	–
isolate (source animal id): 255	8 (≈ 10.3 µM)	–
isolate (source animal id): 258	≤ 1	–
isolate (source animal id): 261	8 (≈ 10.3 µM)	–
isolate (source animal id): 262	8 (≈ 10.3 µM)	–
isolate (source animal id): 268	–	> 8
isolate (source animal id): 269	≤ 1	–
isolate (source animal id): 270	8 (≈ 10.3 µM)	–
isolate (source animal id): 274	8 (≈ 10.3 µM)	–
isolate (source animal id): 275	8 (≈ 10.3 µM)	–
isolate (source animal id): 276	8 (≈ 10.3 µM)	–
isolate (source animal id): 277	≤ 1	–
isolate (source animal id): 278	8 (≈ 10.3 µM)	–
isolate (source animal id): 279	8 (≈ 10.3 µM)	–
isolate (source animal id): 280	> 8	–
isolate (source animal id): 282	–	≤ 1
isolate (source animal id): 284	> 8	–
isolate (source animal id): 285	> 8	> 8
isolate (source animal id): 287	8 (≈ 10.3 µM)	–
isolate (source animal id): 289	–	≤ 1
isolate (source animal id): 290	8 (≈ 10.3 µM)	≤ 1
isolate (source animal id): 294	8 (≈ 10.3 µM)	–
isolate (source animal id): 295	> 8	–
isolate (source animal id): 296	8 (≈ 10.3 µM)	≤ 1
isolate (source animal id): 298	–	≤ 1
isolate (source animal id): 301	–	≤ 1
isolate (source animal id): 307	8 (≈ 10.3 µM)	–
isolate (source animal id): 310	8 (≈ 10.3 µM)	> 8
isolate (source animal id): 311	8 (≈ 10.3 µM)	–
isolate (source animal id): 312	> 8	–
isolate (source animal id): 313	> 8	–
isolate (source animal id): 315	> 8	–
isolate (source animal id): 316	> 8	–
isolate (source animal id): 320	–	≤ 1
isolate (source animal id): 331	–	≤ 1
isolate (source animal id): 333	–	≤ 1
isolate (source animal id): 341	–	> 8
